Test results taken from patent US20260209217A1, “CRYSTALLINE FORMS OF (S)-5-((3-(4-(4-FLUOROPHENYL)-1H-IMIDAZOL-2-YL)CHROMAN-6-YL)OXY)-3,4-DIHYDRO-1,8-NAPHTHYRIDIN-2(1H)-ONE” (Jazz Pharmaceuticals Ireland Limited, priority 2022, published 2026).
“Also recorded” adds a separate entry of the source.

Assays:
Format in all cases: physicochemical
[1] = Solubility / in vitro dissolution in biorelevant media
Procedure: In vitro dissolution profiles were analyzed for Form A and Form F. In vitro drug dissolution and release testing can provide insight into a drug's in vivo performance such as bioavailability.
Because Forms A and F were selected for further pharmaceutical development, dissolution tests were performed on these forms. The tests were performed at different pH and in biorelevant media: hydrochloric acid (HCl), fasted state simulated gastric fluid (FaSSGF), fasted state simulated intestinal fluid (FaSSIF), and fed state simulated intestinal fluid (FeSSIF) (75 rpm, 900 mL). Three 10 mg and 50 mg capsules were analyzed as shown below in Table 18. The capsules include those including only Form A, 90% Form A spiked with 10% of Form F, and Form F. The results are shown in FIGS. 14A-14C (10 mg capsules) and FIGS. 15A-15C (50 mg capsules).

[2] = Dynamic vapor sorption (DVS) isotherm analysis
Procedure: Approximately 10 mg of material was analyzed using an automated dynamic vapor sorption analyzer (Intrinsic/Advantage) at 25° C. Method 1 for anhydrate undergo humidity cycle of 40-0-95-0-40% RH with stage step of 10% RH during which mass change was recorded. Method 2 for hydrate undergo humidity cycle of 40-95-0-95-40% RH with stage step of 10% RH during which mass change we recorded. Equilibrium set up was 0.002 dm/dt (%/min). Minimum dm/dt stability during in 60 min and maximum dm/dt stability duration is 360 min.

[3] = Stability of crystalline forms as evidenced by DSC and TGA thermograms; conditions: relative to the other crystalline forms
Procedure: Approximately 1-2 mg of material was weighed into an aluminum DSC pan with a pin hold. The sample pan then placed on Differential Scanning Calorimetry (TA Discovery 2500) with protected nitrogen flow rate of 50 mL/min. The sample was heated at rate of 10° C./min from 30° C. to 250° C. during which heat flow was recorded.
Approximately 2 mg of material was weighed into an open aluminum pan and loaded into a simultaneous thermogravimetric/differential thermal analyzer (TG Discovery 5500) and held at room temperature. Nitrogen flow rate for balance was 10 mL/min and nitrogen flow rate for sample was 25 mL/min. The sample was then heated at a rate of 10° C./min from 30° C. to 300° C. during which time the change in sample weight was recorded.

[4] = DVS Cycle 1, target 40.0 % P/Po, 24.8° C.
[5] = DVS Cycle 1, target 50.0 % P/Po, 24.8° C.
[6] = DVS Cycle 1, target 60.0 % P/Po, 24.8° C.
[7] = DVS Cycle 1, target 70.0 % P/Po, 24.8° C.
[8] = DVS Cycle 1, target 80.0 % P/Po, 24.8° C.
[9] = DVS Cycle 1, target 90.0 % P/Po, 24.8° C.
[10] = DVS Cycle 1, target 95.0 % P/Po, 24.8° C.
[11] = DVS Cycle 2, target 40.0 % P/Po, 24.8° C.
[12] = DVS Cycle 2, target 50.0 % P/Po, 24.8° C.
[13] = DVS Cycle 2, target 60.0 % P/Po, 24.8° C.
[14] = DVS Cycle 2, target 70.0 % P/Po, 24.8° C.
[15] = DVS Cycle 2, target 80.0 % P/Po, 24.8° C.
[16] = DVS Cycle 2, target 90.0 % P/Po, 24.8° C.
[17] = DVS Cycle 2, target 95.0 % P/Po, 24.8° C.
[18] = DVS Cycle 1, target 0.0 % P/Po, 24.9° C.
[19] = DVS Cycle 1, target 10.0 % P/Po, 24.9° C.
[20] = DVS Cycle 1, target 20.0 % P/Po, 24.9° C.
[21] = DVS Cycle 1, target 30.0 % P/Po, 24.9° C.
[22] = DVS Cycle 1, target 40.0 % P/Po, 24.9° C.
[23] = DVS Cycle 2, target 0.0 % P/Po, 24.9° C.
[24] = DVS Cycle 2, target 10.0 % P/Po, 24.9° C.
[25] = DVS Cycle 2, target 20.0 % P/Po, 24.9° C.
[26] = DVS Cycle 2, target 30.0 % P/Po, 24.9° C.
[27] = DVS Cycle 2, target 40.0 % P/Po, 24.9° C.

O=C1CCc2c(Oc3ccc4c(c3)C[C@@H](c3nc(-c5ccc(F)cc5)c[nH]3)CO4)ccnc2N1 [Compound I, (S)-5-((3-(4-(4-fluorophenyl)-1H-imidazol-2-yl)chroman-6-yl)oxy)-3,4-dihydro-1,8-naphthyridin-2(1H)-one]
solubility [1]: poorly soluble

O=C1CCc2c(Oc3ccc4c(c3)C[C@@H](c3nc(-c5ccc(F)cc5)c[nH]3)CO4)ccnc2N1 [Form A, (S)-5-((3-(4-(4-fluorophenyl)-1H-imidazol-2-yl)chroman-6-yl)oxy)-3,4-dihydro-1,8-naphthyridin-2(1H)-one]
Change In Mass (%) - ref, Desorption ([2]; DVS Cycle 1, target 0.0 % P/Po, 24.8° C.): 0.002% | Change In Mass (%) - ref, Desorption ([2]; DVS Cycle 1, target 10.0 % P/Po, 24.8° C.): 0.350% | Change In Mass (%) - ref, Desorption ([2]; DVS Cycle 1, target 20.0 % P/Po, 24.8° C.): 0.941% | Change In Mass (%) - ref, Desorption ([2]; DVS Cycle 1, target 30.0 % P/Po, 24.8° C.): 3.649% | Change In Mass (%) - ref, Desorption [2, 4]: 4.700% | Change In Mass (%) - ref, Hysteresis [2, 4]: 0.077% | Change In Mass (%) - ref, Sorption [2, 4]: 4.623% | Change In Mass (%) - ref, Desorption [2, 5]: 5.395% | Change In Mass (%) - ref, Hysteresis [2, 5]: 0.283% | Change In Mass (%) - ref, Sorption [2, 5]: 5.112% | Change In Mass (%) - ref, Desorption [2, 6]: 5.814% | Change In Mass (%) - ref, Hysteresis [2, 6]: 0.339% | Change In Mass (%) - ref, Sorption [2, 6]: 5.475% | Change In Mass (%) - ref, Desorption [2, 7]: 6.213% | Change In Mass (%) - ref, Hysteresis [2, 7]: 0.368% | Change In Mass (%) - ref, Sorption [2, 7]: 5.845% | Change In Mass (%) - ref, Desorption [2, 8]: 6.535% | Change In Mass (%) - ref, Hysteresis [2, 8]: 0.341% | Change In Mass (%) - ref, Sorption [2, 8]: 6.194% | Change In Mass (%) - ref, Desorption [2, 9]: 6.824% | Change In Mass (%) - ref, Hysteresis [2, 9]: 0.230% | Change In Mass (%) - ref, Sorption [2, 9]: 6.594% | Change In Mass (%) - ref, Desorption [2, 10]: 6.838% | Change In Mass (%) - ref, Sorption [2, 10]: 6.838% | Change In Mass (%) - ref, Sorption ([2]; DVS Cycle 2, target 0.0 % P/Po, 24.8° C.): 0.002% | Change In Mass (%) - ref, Sorption ([2]; DVS Cycle 2, target 10.0 % P/Po, 24.8° C.): 0.312% | Change In Mass (%) - ref, Sorption ([2]; DVS Cycle 2, target 20.0 % P/Po, 24.8° C.): 0.853% | Change In Mass (%) - ref, Sorption ([2]; DVS Cycle 2, target 30.0 % P/Po, 24.8° C.): 3.253% | Change In Mass (%) - ref, Desorption [2, 11]: 4.601% | Change In Mass (%) - ref, Hysteresis [2, 11]: 0.375% | Change In Mass (%) - ref, Sorption [2, 11]: 4.225% | Change In Mass (%) - ref, Desorption [2, 12]: 5.295% | Change In Mass (%) - ref, Hysteresis [2, 12]: 0.495% | Change In Mass (%) - ref, Sorption [2, 12]: 4.800% | Change In Mass (%) - ref, Desorption [2, 13]: 5.715% | Change In Mass (%) - ref, Hysteresis [2, 13]: 0.466% | Change In Mass (%) - ref, Sorption [2, 13]: 5.248% | Change In Mass (%) - ref, Desorption [2, 14]: 6.129% | Change In Mass (%) - ref, Hysteresis [2, 14]: 0.423% | Change In Mass (%) - ref, Sorption [2, 14]: 5.706% | Change In Mass (%) - ref, Desorption [2, 15]: 6.446% | Change In Mass (%) - ref, Hysteresis [2, 15]: 0.324% | Change In Mass (%) - ref, Sorption [2, 15]: 6.122% | Change In Mass (%) - ref, Desorption [2, 16]: 6.737% | Change In Mass (%) - ref, Hysteresis [2, 16]: 0.201% | Change In Mass (%) - ref, Sorption [2, 16]: 6.536% | Change In Mass (%) - ref, Desorption [2, 17]: 6.745% | Change In Mass (%) - ref, Sorption [2, 17]: 6.745% | stability of the crystalline form [3]: high degree of crystallinity and stability; also recorded: increased stability

O=C1CCc2c(Oc3ccc4c(c3)C[C@@H](c3nc(-c5ccc(F)cc5)c[nH]3)CO4)ccnc2N1 [Form F, (S)-5-((3-(4-(4-fluorophenyl)-1H-imidazol-2-yl)chroman-6-yl)oxy)-3,4-dihydro-1,8-naphthyridin-2(1H)-one]
Change In Mass (%) - ref, Desorption [2, 18]: 0.006% | Change In Mass (%) - ref, Sorption [2, 18]: 0.006% | Change In Mass (%) - ref, Desorption [2, 19]: 0.301% | Change In Mass (%) - ref, Hysteresis [2, 19]: 0.128% | Change In Mass (%) - ref, Sorption [2, 19]: 0.173% | Change In Mass (%) - ref, Desorption [2, 20]: 0.458% | Change In Mass (%) - ref, Hysteresis [2, 20]: 0.134% | Change In Mass (%) - ref, Sorption [2, 20]: 0.324% | Change In Mass (%) - ref, Desorption [2, 21]: 0.566% | Change In Mass (%) - ref, Hysteresis [2, 21]: 0.111% | Change In Mass (%) - ref, Sorption [2, 21]: 0.455% | Change In Mass (%) - ref, Desorption [2, 22]: 0.649% | Change In Mass (%) - ref, Hysteresis [2, 22]: 0.075% | Change In Mass (%) - ref, Sorption [2, 22]: 0.574% | Change In Mass (%) - ref, Sorption ([2]; DVS Cycle 1, target 50.0 % P/Po, 24.9° C.): 0.690% | Change In Mass (%) - ref, Sorption ([2]; DVS Cycle 1, target 60.0 % P/Po, 24.9° C.): 0.813% | Change In Mass (%) - ref, Sorption ([2]; DVS Cycle 1, target 70.0 % P/Po, 24.9° C.): 0.964% | Change In Mass (%) - ref, Sorption ([2]; DVS Cycle 1, target 80.0 % P/Po, 24.9° C.): 1.160% | Change In Mass (%) - ref, Sorption ([2]; DVS Cycle 1, target 90.0 % P/Po, 24.9° C.): 1.601% | Change In Mass (%) - ref, Sorption ([2]; DVS Cycle 1, target 95.0 % P/Po, 24.9° C.): 1.911% | Change In Mass (%) - ref, Desorption [2, 23]: 0.156% | Change In Mass (%) - ref, Sorption [2, 23]: 0.156% | Change In Mass (%) - ref, Desorption [2, 24]: 0.718% | Change In Mass (%) - ref, Hysteresis [2, 24]: 0.355% | Change In Mass (%) - ref, Sorption [2, 24]: 0.363% | Change In Mass (%) - ref, Desorption [2, 25]: 1.060% | Change In Mass (%) - ref, Hysteresis [2, 25]: 0.495% | Change In Mass (%) - ref, Sorption [2, 25]: 0.565% | Change In Mass (%) - ref, Desorption [2, 26]: 1.291% | Change In Mass (%) - ref, Hysteresis [2, 26]: 0.539% | Change In Mass (%) - ref, Sorption [2, 26]: 0.752% | Change In Mass (%) - ref, Desorption [2, 27]: 1.459% | Change In Mass (%) - ref, Hysteresis [2, 27]: 0.532% | Change In Mass (%) - ref, Sorption [2, 27]: 0.927% | Change In Mass (%) - ref, Desorption ([2]; DVS Cycle 2, target 50.0 % P/Po, 24.9° C.): 1.595% | Change In Mass (%) - ref, Desorption ([2]; DVS Cycle 2, target 60.0 % P/Po, 24.9° C.): 1.711% | Change In Mass (%) - ref, Desorption ([2]; DVS Cycle 2, target 70.0 % P/Po, 24.9° C.): 1.813% | Change In Mass (%) - ref, Desorption ([2]; DVS Cycle 2, target 80.0 % P/Po, 24.9° C.): 1.901% | Change In Mass (%) - ref, Desorption ([2]; DVS Cycle 2, target 90.0 % P/Po, 24.9° C.): 1.964% | Change In Mass (%) - ref, Desorption ([2]; DVS Cycle 2, target 95.0 % P/Po, 24.9° C.): 1.911% | stability of the crystalline form [3]: high degree of crystallinity and stability; also recorded: increased stability
